Measured values taken from ChEMBL document CHEMBL2380238, “Synthesis, spectral and antimicrobial evaluation of some novel 1-methyl-3-alkyl-2,6-diphenylpiperidin-4-one oxime carbonates” (2013).
Values after ≈ are worked out from the molar mass of the structure shown. Active and inactive are the calls of the source. The rule behind the calls is not given here.

Key:
Type in all cases: functional
[1] = tested on: Escherichia coli; assay: Antibacterial activity against Escherichia coli
[2] = tested on: Bacillus subtilis; assay: Antibacterial activity against Bacillus subtilis
[3] = tested on: Pseudomonas aeruginosa; assay: Antibacterial activity against Pseudomonas aeruginosa
[4] = tested on: Enterococcus faecalis; assay: Antibacterial activity against Streptococcus faecalis after 24 hrs by broth dilution method
[5] = tested on: Klebsiella pneumoniae; assay: Antibacterial activity against Klebsiella pneumoniae
[6] = tested on: Enterococcus faecalis; assay: Antibacterial activity against Streptococcus faecalis
[7] = tested on: Klebsiella pneumoniae; assay: Antibacterial activity against Klebsiella pneumoniae after 24 hrs by broth dilution method
[8] = tested on: Escherichia coli; assay: Antibacterial activity against Escherichia coli after 24 hrs by broth dilution method
[9] = tested on: Bacillus subtilis; assay: Antibacterial activity against Bacillus subtilis after 24 hrs by broth dilution method
[10] = tested on: Pseudomonas aeruginosa; assay: Antibacterial activity against Pseudomonas aeruginosa after 24 hrs by broth dilution method
[11] = tested on: Fusarium; assay: Antifungal activity against Fusarium
[12] = tested on: Rhizopus; assay: Antifungal activity against Rhizopus after 72 to 96 hrs by broth dilution method
[13] = tested on: Aspergillus flavus; assay: Antifungal activity against Aspergillus flavus
[14] = tested on: Fusarium; assay: Antifungal activity against Fusarium after 72 to 96 hrs by broth dilution method
[15] = tested on: Aspergillus flavus; assay: Antifungal activity against Aspergillus flavus after 72 to 96 hrs by broth dilution method
[16] = tested on: Rhizopus; assay: Antifungal activity against Rhizopus
[17] = tested on: Aspergillus niger; assay: Antifungal activity against Aspergillus niger
[18] = tested on: Penicillium; assay: Antifungal activity against Penicillium after 72 to 96 hrs by broth dilution method
[19] = tested on: Aspergillus niger; assay: Antifungal activity against Aspergillus niger after 72 to 96 hrs by broth dilution method
[20] = tested on: Penicillium; assay: Antifungal activity against Penicillium

Compound | MIC [4] | MIC [7] | MIC [8] | MIC [9] | MIC [10] | MIC [12] | MIC [14] | MIC [15] | MIC [18] | MIC [19] | inhibition zone (IZ) [1] | inhibition zone (IZ) [2] | inhibition zone (IZ) [3] | inhibition zone (IZ) [5] | inhibition zone (IZ) [6] | inhibition zone (IZ) [11] | inhibition zone (IZ) [13] | inhibition zone (IZ) [16] | inhibition zone (IZ) [17] | inhibition zone (IZ) [20]
CN[C@@H]1[C@H](O[C@H]2[C@H](O[C@H]3[C@H](O)[C@@H](O)[C@H](N=C(N)N)[C@@H](O)[C@@H]3N=C(N)N)O[C@@H](C)[C@]2(O)C=O)O[C@@H](CO)[C@H](O)[C@H]1O [STREPTOMYCIN] | 50 µg/mL (≈ 86 µM) | 25 µg/mL (≈ 43 µM) | 12.5 µg/mL (≈ 21.5 µM) | 12.5 µg/mL (≈ 21.5 µM) | 25 µg/mL (≈ 43 µM) | – | – | – | – | – | 28 mm | 28 mm | 26 mm | 26 mm | 22 mm | – | – | – | – | –
CCC1/C(=N/OC(=O)OC)CC(c2ccccc2)N(C)C1c1ccccc1 (stereo not given) | 100 µg/mL (≈ 273 µM) | 200 µg/mL (≈ 546 µM) | 25 µg/mL (≈ 68.2 µM) | 25 µg/mL (≈ 68.2 µM) | 200 µg/mL (≈ 546 µM) | 100 µg/mL (≈ 273 µM) | 200 µg/mL (≈ 546 µM) | 200 µg/mL (≈ 546 µM) | 200 µg/mL (≈ 546 µM) | 200 µg/mL (≈ 546 µM) | 12 mm | 12 mm | inactive | inactive | 12 mm | inactive | inactive | 12 mm | inactive | inactive
CCC1/C(=N/OC(=O)Oc2ccccc2)CC(c2ccccc2)N(C)C1c1ccccc1 (stereo not given) | 25 µg/mL (≈ 58.3 µM) | 6.25 µg/mL (≈ 14.6 µM) | 25 µg/mL (≈ 58.3 µM) | 25 µg/mL (≈ 58.3 µM) | 12.5 µg/mL (≈ 29.2 µM) | 25 µg/mL (≈ 58.3 µM) | 50 µg/mL (≈ 117 µM) | 50 µg/mL (≈ 117 µM) | 25 µg/mL (≈ 58.3 µM) | 50 µg/mL (≈ 117 µM) | 12 mm | 17 mm | 17 mm | 22 mm | 17 mm | 17 mm | 17 mm | 17 mm | 17 mm | 17 mm
COC(=O)O/N=C1\CC(c2ccccc2)N(C)C(c2ccccc2)C1C(C)C (stereo not given) | 50 µg/mL (≈ 131 µM) | 200 µg/mL (≈ 526 µM) | 12.5 µg/mL (≈ 32.9 µM) | 12.5 µg/mL (≈ 32.9 µM) | 200 µg/mL (≈ 526 µM) | 200 µg/mL (≈ 526 µM) | 200 µg/mL (≈ 526 µM) | 100 µg/mL (≈ 263 µM) | 200 µg/mL (≈ 526 µM) | 200 µg/mL (≈ 526 µM) | 17 mm | 12 mm | inactive | inactive | 12 mm | inactive | 12 mm | inactive | inactive | inactive
C[C@@H]1[C@H](O)[C@@H](C)/C=C/C=C/C=C/C=C/C=C/C=C/C=C/[C@H](O[C@@H]2O[C@H](C)[C@@H](O)[C@H](N)[C@@H]2O)C[C@@H]2O[C@](O)(C[C@@H](O)C[C@@H](O)[C@H](O)CC[C@@H](O)C[C@@H](O)CC(=O)O[C@H]1C)C[C@H](O)[C@H]2C(=O)O [AMPHOTERICIN B] | – | – | – | – | – | 25 µg/mL (≈ 27.1 µM) | 25 µg/mL (≈ 27.1 µM) | 50 µg/mL (≈ 54.1 µM) | 25 µg/mL (≈ 27.1 µM) | 50 µg/mL (≈ 54.1 µM) | – | – | – | – | – | 22 mm | 22 mm | 21 mm | 21 mm | 22 mm
CCC1/C(=N/O)CC(c2ccccc2)N(C)C1c1ccccc1 (stereo not given) | 200 µg/mL (≈ 648 µM) | 200 µg/mL (≈ 648 µM) | 50 µg/mL (≈ 162 µM) | 50 µg/mL (≈ 162 µM) | 200 µg/mL (≈ 648 µM) | 100 µg/mL (≈ 324 µM) | 200 µg/mL (≈ 648 µM) | 200 µg/mL (≈ 648 µM) | 200 µg/mL (≈ 648 µM) | 200 µg/mL (≈ 648 µM) | 12 mm | 12 mm | inactive | inactive | 12 mm | inactive | inactive | 12 mm | inactive | inactive

Second part, led by results:

MIC [4] | MIC [7] | MIC [8] | MIC [9] | MIC [10] | MIC [12] | MIC [14] | MIC [15] | MIC [18] | MIC [19] | Compound | inhibition zone (IZ) [1] | inhibition zone (IZ) [2] | inhibition zone (IZ) [3] | inhibition zone (IZ) [5] | inhibition zone (IZ) [6] | inhibition zone (IZ) [11] | inhibition zone (IZ) [13] | inhibition zone (IZ) [16] | inhibition zone (IZ) [17] | inhibition zone (IZ) [20]
6.25 µg/mL (≈ 14.6 µM) | 6.25 µg/mL (≈ 14.6 µM) | 12.5 µg/mL (≈ 29.1 µM) | 6.25 µg/mL (≈ 14.6 µM) | 6.25 µg/mL (≈ 14.6 µM) | 25 µg/mL (≈ 58.3 µM) | 12.5 µg/mL (≈ 29.1 µM) | 25 µg/mL (≈ 58.3 µM) | 12.5 µg/mL (≈ 29.1 µM) | 25 µg/mL (≈ 58.3 µM) | CC(Cl)OC(=O)O/N=C1\CC(c2ccccc2)N(C)C(c2ccccc2)C1C(C)C (stereo not given) | 22 mm | 32 mm | 32 mm | 32 mm | 32 mm | 32 mm | 22 mm | 22 mm | 17 mm | 32 mm
100 µg/mL (≈ 263 µM) | 200 µg/mL (≈ 526 µM) | 25 µg/mL (≈ 65.7 µM) | 25 µg/mL (≈ 65.7 µM) | 200 µg/mL (≈ 526 µM) | 100 µg/mL (≈ 263 µM) | 200 µg/mL (≈ 526 µM) | 200 µg/mL (≈ 526 µM) | 200 µg/mL (≈ 526 µM) | 200 µg/mL (≈ 526 µM) | CCOC(=O)O/N=C1\CC(c2ccccc2)N(C)C(c2ccccc2)C1CC (stereo not given) | 12 mm | 12 mm | inactive | inactive | 12 mm | inactive | inactive | 12 mm | inactive | inactive
200 µg/mL (≈ 679 µM) | 200 µg/mL (≈ 679 µM) | 100 µg/mL (≈ 340 µM) | 100 µg/mL (≈ 340 µM) | 200 µg/mL (≈ 679 µM) | 100 µg/mL (≈ 340 µM) | 200 µg/mL (≈ 679 µM) | 200 µg/mL (≈ 679 µM) | 200 µg/mL (≈ 679 µM) | 200 µg/mL (≈ 679 µM) | CC1/C(=N/O)CC(c2ccccc2)N(C)C1c1ccccc1 (stereo not given) | 12 mm | 12 mm | inactive | inactive | inactive | inactive | inactive | 12 mm | inactive | inactive
25 µg/mL (≈ 56.5 µM) | 6.25 µg/mL (≈ 14.1 µM) | 25 µg/mL (≈ 56.5 µM) | 25 µg/mL (≈ 56.5 µM) | 6.25 µg/mL (≈ 14.1 µM) | 25 µg/mL (≈ 56.5 µM) | 25 µg/mL (≈ 56.5 µM) | 50 µg/mL (≈ 113 µM) | 25 µg/mL (≈ 56.5 µM) | 50 µg/mL (≈ 113 µM) | CC(C)C1/C(=N/OC(=O)Oc2ccccc2)CC(c2ccccc2)N(C)C1c1ccccc1 (stereo not given) | 17 mm | 17 mm | 22 mm | 22 mm | 17 mm | 17 mm | 17 mm | 17 mm | 12 mm | 17 mm
25 µg/mL (≈ 60.3 µM) | 12.5 µg/mL (≈ 30.2 µM) | 12.5 µg/mL (≈ 30.2 µM) | 25 µg/mL (≈ 60.3 µM) | 25 µg/mL (≈ 60.3 µM) | 50 µg/mL (≈ 121 µM) | 25 µg/mL (≈ 60.3 µM) | 50 µg/mL (≈ 121 µM) | 50 µg/mL (≈ 121 µM) | 100 µg/mL (≈ 241 µM) | CC1/C(=N/OC(=O)Oc2ccccc2)CC(c2ccccc2)N(C)C1c1ccccc1 (stereo not given) | 17 mm | 12 mm | 12 mm | 17 mm | 17 mm | 12 mm | 12 mm | 12 mm | 12 mm | 12 mm
200 µg/mL (≈ 567 µM) | 200 µg/mL (≈ 567 µM) | 50 µg/mL (≈ 142 µM) | 50 µg/mL (≈ 142 µM) | 200 µg/mL (≈ 567 µM) | 200 µg/mL (≈ 567 µM) | 200 µg/mL (≈ 567 µM) | 100 µg/mL (≈ 284 µM) | 200 µg/mL (≈ 567 µM) | 200 µg/mL (≈ 567 µM) | COC(=O)O/N=C1\CC(c2ccccc2)N(C)C(c2ccccc2)C1C (stereo not given) | 12 mm | 12 mm | inactive | inactive | inactive | inactive | 12 mm | inactive | inactive | inactive
12.5 µg/mL (≈ 31.2 µM) | 12.5 µg/mL (≈ 31.2 µM) | 12.5 µg/mL (≈ 31.2 µM) | 50 µg/mL (≈ 125 µM) | 25 µg/mL (≈ 62.4 µM) | 25 µg/mL (≈ 62.4 µM) | 25 µg/mL (≈ 62.4 µM) | 50 µg/mL (≈ 125 µM) | 25 µg/mL (≈ 62.4 µM) | 50 µg/mL (≈ 125 µM) | CC(Cl)OC(=O)O/N=C1\CC(c2ccccc2)N(C)C(c2ccccc2)C1C (stereo not given) | 22 mm | 17 mm | 22 mm | 22 mm | 22 mm | 17 mm | 17 mm | 17 mm | 17 mm | 17 mm
200 µg/mL (≈ 546 µM) | 200 µg/mL (≈ 546 µM) | 50 µg/mL (≈ 136 µM) | 50 µg/mL (≈ 136 µM) | 200 µg/mL (≈ 546 µM) | 200 µg/mL (≈ 546 µM) | 200 µg/mL (≈ 546 µM) | 100 µg/mL (≈ 273 µM) | 200 µg/mL (≈ 546 µM) | 200 µg/mL (≈ 546 µM) | CCOC(=O)O/N=C1\CC(c2ccccc2)N(C)C(c2ccccc2)C1C (stereo not given) | 12 mm | 12 mm | inactive | inactive | inactive | inactive | 12 mm | inactive | inactive | inactive
